“And” between values parts separate entries of the source, which are not always exact repeats. Equal values may be shown once.
What was measured:
[1] = Purity by HPLC of melphalan lyophilizates vs. their API (degradation on lyophilization)
Experimental: Purity determinations of melphalan in its different compositions were analyzed by HPLC applying the method Pharmaeuropa, Vol 21, No. 3, July 2009, pages 425-28, for the following examples:
(§1) Simultaneously, the melphalan solution was filtered and measured in doses to 10 mg/ml in glacial acetic acid with 3 moles of hydrochloric acid from hydrochloric acid at 37% w/we, which used base melphalan Lot 20-01-2010, in 5 ml vials of the tube flask type, 20 mm mouth, containing 2 ml solution, and it was lyophilized in a Virtis Advantage Lyophilizer, freezing at −50° C. for 5 hours, starting vacuum at the same temperature, then bringing the shelf to −20° C., then to 0° C. and finally drying at 5° C., with a final vacuum of 25 microbars.
as §1, with “acid,” for “acid with 3 moles of hydrochloric acid from hydrochloric acid at 37% w/we,”, “25°” for “5°”

[2] = Solubility of melphalan in pharmaceutical organic solvents; format: physicochemical; settings: for Solubility in DMSO: hydrochlorate prepared by addition of three moles of hydrochloric acid at 37%
Experimental: To investigate the possibility of elaborating malphalan lyophilizates from pharmaceutical organic solvents, it was determined that base melphalan as well as its hydrochlorate are not soluble in terbutylic alcohol. Instead, even though base malphalan is not soluble in DMSO, its hydrochlorate is soluble up to close to 10% p/v, prepared by the addition of three moles of hydrochloric acid as a concentrated acid at 37%.
Base melphalan is soluble in glacial acetic acid, preferably free of acetic anhydride, in up to close to 10% p/v; likewise as melphalan hydrochlorate, mixtures of acetic acid and aqueous solution of hydrochloric acid at 37% p/p to dissolve base melphalan may also be used, or else hydrogen chloride solution in glacial acetic acid.

[3] = Stability at 25° C. of melphalan solution at 10 mg/ml in glacial acetic acid, purity by HPLC; format: physicochemical
Experimental: To study stability at 25° C. of a melphalan solution at 10 mg/ml in glacial acetic acid in the absence of hydrochloric acid, 830 mg base melphalan Lot 20-01-2010 were used and the results of the following table were obtained. This solution is not comprised in the present invention, it is only introduced with the aim of comparing this option without hydrochloric acid presenting higher concentration of impurities than the composition of lyophilized melphalan on the invention.

[4] = pH of lyophilized melphalan after reconstitution, dilution in normal saline solution and neutralization with trisodium citrate; format: physicochemical; settings: 5 mg/ml of melphalan hydrochlorate with 2.5 molecules of hydrogen chloride per melphalan mol
Experimental: (§2) A vial containing the solid composition of lyophilized melphalan was reconstituted with 3.2 ml of normal saline solution, producing a melphalan solution at 5.40 mg/ml of pH 1.80. An aliquot of 0.8 ml was taken and added with another of 4.2 ml of normal saline solution, producing 0.86 mg/ml of pH 2.33. It was neutralized with 0.20 ml of a solution of 100 mg/ml of trisodium citrate dihydrate, producing a final pH 5.44.
as §2, with “6.84” for “5.40”, “2.20.” for “1.80.”, “1.09” for “0.86”, “2.20.” for “2.33.”, “of 5.59.” for “5.44.”

[5] = cited from earlier work
[6] = API or lyophilizate, listed as API
[7] = API or lyophilizate, listed as API-Mel 143-09
[8] = API before dissolution, listed as API

## N[C@@H](Cc1ccc(N(CCCl)CCCl)cc1)C(=O)O [Melphalan, p-(bis-2-chloroethyl)-amino-L-phenylalanine]
[1]; API or lyophilizate
  Impurity C: <0.05 % w/w
  Impurity F: <0.05 % w/w
  Impurity I: <0.05 % w/w
[1]; [6]
  Impurity D: 0.05% w/w and <0.05 % w/w
  Impurity G: 1.04% w/w and 0.97% w/w
  Impurity J: 0.05% w/w and <0.05 % w/w
  Máx. Imp. Dispos: 0.05% w/w and 0.07% w/w
  Total of Impurities: 1.19% w/w and 1.04% w/w
[1]; [7]
  Impurity D: 0.1 % w/w
  Impurity G: 0.9 % w/w
  Máx. Imp. Dispos: 0.1 % w/w
  Total of Impurities: 1.2 % w/w
[1]; from acetic acid with three moles of hydrochloric acid per mol
  Degradation of the API on non-aqueous lyophilization: lower than 0.2 % in area
[2]
  Solubility in terbutylic alcohol: not soluble
[2]; listed as base malphalan
  Solubility in DMSO: not soluble
[2]; preferably free of acetic anhydride
  Solubility in glacial acetic acid: ~10 % p/v
[3]; API before dissolution
  Impurity C: 0.02 % of area
  Impurity D: 0.09 % of area
  Impurity F: 0.05 % of area
  Impurity G: 2.05 % of area
  Impurity I: 0.03 % of area
  Impurity J: 0.11 % of area
  Melphalan Purity: 97.45 % of area
  Total of Impurities: 2.55 % of area
[3]; [8]
  Max. Imp. Disposab: 0.02 (TRR 0.81) % of area and 0.04 % of area
  Other Imp. Disposab: 0.04 (TRR 1.58) % of area and 0.02 % of area
[3]; hours in solution at ambient temperature / 25° C.
  Stability in solution of 10 mg/ml in acetic acid by HPLC: perfectly stable

## N[C@@H](Cc1ccc(N(CCCl)CCCl)cc1)C(=O)O [melphalan hydrochlorate]
[2]; listed as its hydrochlorate
  Solubility in DMSO: ~10 % p/v
[4]
  pH of an aqueous solution: approximately 1.9

## CC(O)CO (stereo not shown) [propylene glycol]
[5]; individuals with normal renal function
  Half plasma life: 5 h
[5]; rest metabolized by the liver
  Excreted by kidneys: 12-45%

Reference: patent US20130131174A1, “INJECTABLE PHARMACEUTICAL FORMULATION OF MELPHALAN” (ERIOCHEM, priority 2010, published 2013)
